According to the NIST ThermoML archive (doi:10.1021/acs.jced.7b00604):
Numbers after ± are expanded uncertainties.

Columns and labels:
[1] = 100 kPa, Liquid; for speed of sound: Frequency=3 MHz, Sing-around technique in a fixed-path interferometer; for mass density: Vibrating tube method
[2] = molar heat capacity at constant pressure; conditions: 100 kPa, Liquid, Extra sensitive DSC
[3] = xn = mol fraction of the nth substance listed; conditions: 100 kPa, Liquid, x1 = 1; for speed of sound: Frequency=3 MHz, Sing-around technique in a fixed-path interferometer; for mass density: Vibrating tube method

SMILES	speed of sound ([1]; 298.15 K) [m/s]	mass density ([1]; 298.15 K) [kg/m3]	speed of sound ([1]; 303.15 K) [m/s]	mass density ([1]; 303.15 K) [kg/m3]	speed of sound ([1]; 308.15 K) [m/s]	mass density ([1]; 308.15 K) [kg/m3]	speed of sound ([1]; 313.15 K) [m/s]	mass density ([1]; 313.15 K) [kg/m3]	speed of sound ([1]; 318.15 K) [m/s]	mass density ([1]; 318.15 K) [kg/m3]	speed of sound ([1]; 323.15 K) [m/s]	mass density ([1]; 323.15 K) [kg/m3]	molar heat capacity at constant pressure ([2]; 298.15 K) [J/K/mol]	molar heat capacity at constant pressure ([2]; 303.15 K) [J/K/mol]	molar heat capacity at constant pressure ([2]; 308.15 K) [J/K/mol]	molar heat capacity at constant pressure ([2]; 313.15 K) [J/K/mol]	molar heat capacity at constant pressure ([2]; 318.15 K) [J/K/mol]	molar heat capacity at constant pressure ([2]; 323.15 K) [J/K/mol]	also measured
COCCO [2-methoxyethan-1-ol]	1341.8 ± 1.5	960.31 ± 1	1324.1 ± 1.5	955.71 ± 1	1307.3 ± 1.5	951.08 ± 1	1292 ± 1.5	946.41 ± 1	1274.2 ± 1.5	941.72 ± 1	1259.4 ± 1.5	936.99 ± 1	175.32 ± 6.8	176.9 ± 6.8	178.41 ± 6.9	179.96 ± 7	181.45 ± 7	183.02 ± 7.1	–
CCCC[n+]1ccn(C)c1.O=S(=O)([N-]S(=O)(=O)C(F)(F)F)C(F)(F)F	1227.8 ± 1.5	1437.12 ± 1.1	1216.7 ± 1.5	1432.51 ± 1.1	1205.8 ± 1.5	1427.43 ± 1.1	1194.9 ± 1.5	1422.86 ± 1.1	1184.2 ± 1.5	1417.91 ± 1.1	1173.6 ± 1.5	1413.58 ± 1.1	567.22 ± 22	569.85 ± 22	572.64 ± 22	575.47 ± 22	578.38 ± 22	581.52 ± 23	–
CCCC[n+]1ccn(C)c1.O=S(=O)([N-]S(=O)(=O)C(F)(F)F)C(F)(F)F + COCCO	–	–	–	–	–	–	–	–	–	–	–	–	–	–	–	–	–	–	speed of sound ([3]; 298.15 K): 1227.8 ± 1.5 m/s; mass density ([3]; 298.15 K): 1437.12 ± 1.1 kg/m3; speed of sound ([3]; 303.15 K): 1216.7 ± 1.5 m/s; mass density ([3]; 303.15 K): 1432.51 ± 1.1 kg/m3; speed of sound ([3]; 308.15 K): 1205.8 ± 1.5 m/s; mass density ([3]; 308.15 K): 1427.43 ± 1.1 kg/m3; speed of sound ([3]; 313.15 K): 1194.9 ± 1.5 m/s; mass density ([3]; 313.15 K): 1422.86 ± 1.1 kg/m3; speed of sound ([3]; 318.15 K): 1184.2 ± 1.5 m/s; mass density ([3]; 318.15 K): 1417.91 ± 1.1 kg/m3; speed of sound ([3]; 323.15 K): 1173.6 ± 1.5 m/s; mass density ([3]; 323.15 K): 1413.58 ± 1.1 kg/m3
